According to paper PMC10783087 (Microbiology Spectrum, 2023):
Converted amounts (≈) assume the structure as drawn. Read-outs that look alike come from different tables or passages of the source.

Key:
M. abscessus ATCC 19977 = test: In vitro MIC against NTM, microbroth dilution; type: cell-based; conditions: 7 days
Erdman = test: microbe, parasite or virus in culture; type: cell-based; conditions: Mycobacterium tuberculosis
[1] = tested on: M. avium ATC 700891 (MAC 101); test: In vitro MIC against NTM, microbroth dilution; type: cell-based; conditions: Mycobacterium avium, 168 h; 7 days
[2] = tested on: M. avium ATC 700891 (MAC 101) in THP-1 cells; test: Ex vivo (intra-macrophage) activity in infected THP-1 cells, resazurin; type: cell-based
Experimental: (§1) THP-1 cells were infected with either M. avium or M. abscessus at an MOI of 10 for 4 h prior to treatment. Following infection, cells were washed twice with PBS to remove non-phagocytosed bacteria. Fresh medium was then added, and cells were treated with concentrations ranging from 64 to 0.24 µg/mL and incubated for 24 h at 37°C with 5% CO2. Following 24 h of treatment, cells were treated with resazurin (0.04 mg/mL) and incubated for an additional 3–5 days. Absorbance was measured for each well at 570 and 600 nm. The percent growth reduction was calculated relative to treated and untreated controls.

[3] = tested on: M. abscessus ATCC 19977 in THP-1 cells; test: as above; type: cell-based
Experimental: as §1

in vitro = conditions: mouse
[4] = tested on: primary bone marrow-derived macrophages (BMMΦ); conditions: macrophage CC50 / in vitro Mtb EC50
MAB = conditions: at 20 µM; cited from earlier work
[5] = tested on: Mtb CDC1551 FFluc reporter strain in primary bone marrow-derived macrophages; design: method as in PMID 31405862; conditions: earlier report; read-out: EC50 against intracellular Mtb; cited from earlier work
Mtb [6] = conditions: earlier report; read-out: EC50 against Mtb in vitro; cited from earlier work
[7] = tested on: primary bone marrow-derived macrophages (BMMΦ); conditions: earlier report; cited from earlier work
[8] = type: in vitro ADME, mouse; conditions: Table S5, % remaining after 30 minutes with mouse microsomes
Experimental: The mouse microsomal stability assay was conducted as described by Obach ([57]), and the results are presented as the percentages remaining after 30 min. Values greater than 100% are likely due to changes in the solubility of the compounds over the course of the assay and represent high stability in microsomes.

physchem = type: physicochemical; conditions: 37 °C, kinetic from dmso stock, Table S5
Experimental: The kinetic solubility assay was conducted as previously described ([18]). Briefly, using methods described by Bevan and Lloyd ([56]), the assay was performed with 7-point (twofold) dilutions of the compounds, from 200 to 3.125 μM along with mebendazole, bexarotene, and aspirin as controls. The drug dilutions were added to PBS, pH 7.4, with a DMSO concentration of 1% (final), and incubated at 37°C for 2 h. The absorbance at 620 nm was measured for each drug dilution to estimate the solubility of the compound in triplicate/ dilution.

Mtb [9] = test: microbe, parasite or virus in culture; type: cell-based, Mycobacterium tuberculosis; conditions: Mycobacterium tuberculosis, 144 h; for EC50: read-out: In vitro EC50; for EC90: read-out: In vitro EC90
H37Rv = test: microbe, parasite or virus in culture; type: cell-based; conditions: Mycobacterium tuberculosis, read-out: MIC, H37Rv
Mtb Erdman = type: in vivo, Mycobacterium tuberculosis; conditions: INH 25 mg/kg, MSU compounds 200 mg/kg
H37Rv (ΔkatG) = type: cell-based
[10] = Mycobacteroides abscessus, ATCC19977, 168 h
[11] = pH 2, aqueous buffer, read-out: Kinetic solubility at pH 2.0
[12] = pH 7.4, aqueous buffer, read-out: Kinetic solubility at pH 7.4

Structure (SMILES): NCC[C@H](O)C(=O)N[C@@H]1C[C@H](N)[C@@H](O[C@H]2O[C@H](CN)[C@@H](O)[C@H](O)[C@H]2O)[C@H](O)[C@H]1O[C@H]1O[C@H](CO)[C@@H](O)[C@H](N)[C@H]1O [Amikacin]
- MIC (M. abscessus ATCC 19977): 6.8 µM (≈ 3.98 µg/mL)
- MIC (M. abscessus ATCC 19977; [10]): 6.8 µM (≈ 3.98 µg/mL)

Structure (SMILES): COc1nc2ccc(Br)cc2cc1[C@@H](c1ccccc1)[C@@](O)(CCN(C)C)c1cccc2ccccc12 [Bedaquiline]
- EC50 (Erdman): 0.22 µM

Structure (SMILES): CC[C@H]1OC(=O)[C@H](C)[C@@H](O[C@H]2C[C@@](C)(OC)[C@@H](O)[C@H](C)O2)[C@H](C)[C@@H](O[C@@H]2O[C@H](C)C[C@H](N(C)C)[C@H]2O)[C@](C)(OC)C[C@@H](C)C(=O)[C@H](C)[C@@H](O)[C@]1(C)O [Clarithromycin]
- MIC [1]: 0.08 µM (≈ 0.0598 µg/mL)
- Ex vivo (>90% inhibition), M. avium ATC 700891 (MAC 101) [2]: 171 µM
- Ex vivo (>90% inhibition), M. abscessus ATCC 19977 [3]: 86 µM
- MIC (M. abscessus ATCC 19977; [10]): 1.4 µM (≈ 1.05 µg/mL)

Structure (SMILES): CC(C)/N=c1\cc2n(-c3ccc(Cl)cc3)c3ccccc3nc-2cc1Nc1ccc(Cl)cc1 [Clofazimine]
- EC50 (Erdman): 0.3 µM

Structure (SMILES): CC(C)N(C(=O)CSc1nc2ccc(Cl)cc2[nH]1)C(C)C [HC2099]
- CC50 (in vitro): > 80 µM
- Si (CC50/EC50) [4]: >13
- inhibition of MAB growth in vitro (MAB): 96.5%
- EC50 [5]: < 0.3 µM
- EC50 (Mtb [6]): 1.7 µM
- cytotoxicity in macrophages [7]: no detectable cytotoxicity
- Microsome Stability [8]: 71%
- solubility kinetic (physchem; [11]): > 300 µM
- solubility kinetic (physchem; [12]): 178 µM (≈ 58 µg/mL)
- EC50 (Mtb [9]): 5.9 µM
- EC90 (Mtb [9]): 13.7 µM

Structure (SMILES): Cc1ccc2nc(SCC(=O)N(C(C)C)C(C)C)[nH]c2c1 [HC2183]
- CC50 (in vitro): > 80 µM
- Si (CC50/EC50) [4]: >11
- EC50 [5]: 3 µM
- EC50 (Mtb [6]): 3.2 µM
- cytotoxicity in macrophages [7]: no detectable cytotoxicity
- Microsome Stability [8]: 25%
- solubility kinetic (physchem; [11]): > 300 µM
- solubility kinetic (physchem; [12]): > 200 µM
- EC50 (Mtb [9]): 7.3 µM
- EC90 (Mtb [9]): 16 µM

Structure (SMILES): NNC(=O)c1ccncc1 [Isoniazid]
- MIC (H37Rv): 0.2 µM (≈ 0.0274 µg/mL)
- median lung bacterial burden (Mtb Erdman; C57Bl/6 mice, oral gavage 2 weeks): no colonies were isolated
- colonies in spleens (dissemination) (Mtb Erdman; […]): no colonies were isolated
- MIC, H37Rv (ΔkatG) (H37Rv (ΔkatG)): >14.5 µM
